Where a SMILES comes first, the peptide text is derived from it. [ ]: non-standard residue; d: D form. d(hArg) = N=C(N)NCCCC[C@@H](N)C(=O)O
Key:
human RBCs = format: cell-based
Protocol: Human O+ erythrocytes were obtained from Interstate Blood Bank, Inc. Red blood cells were subjected to four or more cycles of centrifugation at 1000g with resuspension in fresh PBS. Following the final wash step, the supernatant was clear and colorless. RBC concentration was determined using a standard hemocytometer.
Peptide was serially diluted in PBS starting at a concentration of 100 μM. The final volume of peptide in each well was 50 μL. To each well, 50 μL of RBCs in PBS at 2 × 10^8 cells/mL was added. As a positive lysis control, 1% Triton was used. The mixtures were incubated at 37 °C for 1 h, after which they were centrifuged at 1000g for 5 min. After centrifugation, 10 μL of supernatant was transferred to 90 μL of DI H2O in a fresh 96-well plate. The absorbance of released hemoglobin at 410 nm was recorded, and the fractional hemolysis was calculated based on the 100 and 0% lysis controls. At least three independent experiments were performed. Results shown are averages.

[1] = test system: WI-38 human fibroblast cells; assay: in vitro; format: cell-based
Protocol: The day before cytotoxicity experiments, the 10,000 cells/well were plated in a 96-well tissue-culture plate. […] To perform the cytotoxicity assay, media was removed from the wells and replaced with peptide solutions. […] The plate was read for SYTOX fluorescence every 5 min for an hour with an excitation wavelength of 504 nm and an emission wavelength of 523 nm. Percent cytotoxicity was calculated at 60 min using the 100 and 0% lysis controls. At least three independent experiments were averaged.

SMILES	Hemolysis at 100 μM (fractional hemolysis) (human RBCs)	EC50 [1]
CC(C)C[C@@H](NC(=O)[C@@H](CCCNC(=N)N)NC(=O)[C@H](N)CCCNC(=N)N)C(=O)N[C@H](C)C(=O)N[C@H](Cc1ccccc1)C(=O)N[C@H](C)C(=O)N[C@H](Cc1ccccc1)C(=O)N[C@H](CCCNC(=N)N)C(=O)N[C@H](CCCNC(=N)N)C(=O)N[C@H](Cc1c[nH]c2ccccc12)C(=O)N[C@H](C)C(=O)N[C@H](CCCNC(=N)N)C(=O)N[C@H](CCCNC(=N)N)C(N)=O [D-CONGA-FLIP] (H-[dR][dR][dL][dA][dF][dA][dF][dR][dR][dW][dA][dR][dR]-NH2; N-terminus and C-terminus assumed)	0.05	143 µM
CC(C)C[C@@H](NC(=O)CNC(=O)[C@@H](CCCNC(=N)N)NC(=O)[C@@H](CCCNC(=N)N)NC(=O)[C@@H](C)NC(=O)[C@@H](Cc1c[nH]c2ccccc12)NC(=O)[C@@H](CCCNC(=N)N)NC(=O)[C@H](N)CCCNC(=N)N)C(=O)N[C@H](C)C(=O)N[C@H](Cc1ccccc1)C(=O)N[C@H](C)C(=O)N[C@H](Cc1ccccc1)C(=O)N[C@H](CCCNC(=N)N)C(=O)N[C@H](CCCNC(=N)N)C(N)=O [D-CONGA-G7] (H-[dR][dR][dW][dA][dR][dR]G[dL][dA][dF][dA][dF][dR][dR]-NH2; N-terminus and C-terminus assumed)	0.07	235 µM
CC(C)C[C@@H](NC(=O)[C@@H](CCCCNC(=N)N)NC(=O)[C@@H](CCCCNC(=N)N)NC(=O)[C@@H](C)NC(=O)[C@@H](Cc1c[nH]c2ccccc12)NC(=O)[C@@H](CCCNC(=N)N)NC(=O)[C@H](N)CCCNC(=N)N)C(=O)N[C@H](C)C(=O)N[C@H](Cc1ccccc1)C(=O)N[C@H](C)C(=O)N[C@H](Cc1ccccc1)C(=O)N[C@H](CCCNC(=N)N)C(=O)N[C@H](CCCNC(=N)N)C(N)=O [D-CONGA-HomoR] (H-[dR][dR][dW][dA][d(hArg)][d(hArg)][dL][dA][dF][dA][dF][dR][dR]-NH2; N-terminus and C-terminus assumed)	0.06	143 µM
CC(C)C[C@@H](NC(=O)[C@@H](CCCNC(=N)N)NC(=O)[C@@H](CCCNC(=N)N)NC(=O)[C@@H](Cc1c[nH]c2ccccc12)NC(=O)[C@@H](CCCNC(=N)N)NC(=O)[C@H](N)CCCNC(=N)N)C(=O)N[C@H](C)C(=O)N[C@H](Cc1ccccc1)C(=O)N[C@H](C)C(=O)N[C@H](Cc1ccccc1)C(=O)N[C@H](CCCNC(=N)N)C(=O)N[C@H](CCCNC(=N)N)C(N)=O [D-CONGA-ΔA4] (H-[dR][dR][dW][dR][dR][dL][dA][dF][dA][dF][dR][dR]-NH2; N-terminus and C-terminus assumed)	0.02	143 µM
CC(C)C[C@@H](NC(=O)[C@@H](CCCNC(=N)N)NC(=O)[C@@H](CCCNC(=N)N)NC(=O)[C@@H](C)NC(=O)[C@@H](Cc1c[nH]c2ccccc12)NC(=O)[C@@H](CCCNC(=N)N)NC(=O)[C@H](N)CCCNC(=N)N)C(=O)N[C@H](C)C(=O)N[C@H](Cc1ccccc1)C(=O)N[C@H](Cc1ccccc1)C(=O)N[C@H](CCCNC(=N)N)C(=O)N[C@H](CCCNC(=N)N)C(N)=O [D-CONGA-ΔA10] (H-[dR][dR][dW][dA][dR][dR][dL][dA][dF][dF][dR][dR]-NH2; N-terminus and C-terminus assumed)	0.02	257 µM

Source: paper PMC10111420, “Optimization of Host Cell-Compatible, Antimicrobial Peptides Effective against Biofilms and Clinical Isolates of Drug-Resistant Bacteria” (ACS Infectious Diseases, 2023)
